Calls of active or inactive are those of the source.
Experiments:
[1] = Luminescence Cell-Based Dose Confirmation HTS to Identify Inhibitors of Platelet Dense Granule Release. [Related pubchem assays: 1663 (Primary HTS), 1678 (Summary of Project)]; type: functional
[2] = biological target: Luciferin 4-monooxygenase (Photinus pyralis, UniProt P08659); assay: inhibition of purified Photinus pyralis luciferase – biochemical, luminescence, dose response (AID 1891)
Leucine aminopeptidase = biological target: T1, Leucine aminopeptidase (Plasmodium falciparum 3D7, UniProt Q8IL11); assay: P. falciparum M17LAP inhibitors, primary screen, biochemical, fluorogenic H-Leu-NHMec substrate, 1536-well (AID 1619); type: functional
T1 sequence (Q8IL11 whole entry): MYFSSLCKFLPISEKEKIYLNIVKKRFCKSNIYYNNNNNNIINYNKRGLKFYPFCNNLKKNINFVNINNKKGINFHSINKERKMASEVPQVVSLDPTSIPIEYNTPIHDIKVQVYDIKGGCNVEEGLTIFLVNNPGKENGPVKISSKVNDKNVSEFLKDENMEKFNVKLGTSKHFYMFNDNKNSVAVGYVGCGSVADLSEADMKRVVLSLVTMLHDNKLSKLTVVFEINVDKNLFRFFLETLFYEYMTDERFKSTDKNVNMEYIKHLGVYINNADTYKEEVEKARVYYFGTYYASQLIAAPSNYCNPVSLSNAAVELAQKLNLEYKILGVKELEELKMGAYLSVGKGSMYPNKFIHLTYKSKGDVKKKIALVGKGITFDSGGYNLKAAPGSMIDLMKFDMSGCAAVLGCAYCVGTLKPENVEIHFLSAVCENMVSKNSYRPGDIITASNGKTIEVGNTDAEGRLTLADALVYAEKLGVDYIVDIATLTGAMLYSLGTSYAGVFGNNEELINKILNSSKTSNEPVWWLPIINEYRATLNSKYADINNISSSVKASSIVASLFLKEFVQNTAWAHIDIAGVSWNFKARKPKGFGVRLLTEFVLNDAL

Prothrombin = Prothrombin (Homo sapiens, UniProt P00734); assay: Thrombin 1536 HTS Dose Response Confirmation. [Related pubchem assays: 1046 (Thrombin 1536 HTS; hits were confirmed in this assay)]; type: functional
[3] = viability of uninfected HEp-2 cells – cell-based, HTS, cytotoxicity control for RSV inhibitor project, dose response (AID 2410); type: functional; conditions: human respiratory syncytial virus
cells [4] = type: functional, cell-based
cells [5] = type: functional, cell-based; remark: listed apart in the source
[6] = NIH-3T3 fibroblast cytotoxicity, dose response, cytotoxicity control, cell-based, fluorescence, Alamar Blue, secondary assay (AID 2327); type: functional;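 note: NIH-3T3 mouse fibroblasts cultured with fluconazole at 8 µg/mL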
[7] = fluconazole-exposed Candida albicans growth modulators – fluorescence, retest, confirmation (AID 2467); type: functional, cell-based
Cytochrome P450 2C9 = Cytochrome P450 2C9 (Homo sapiens, UniProt P11712)
Cytochrome P450 2D6 = Cytochrome P450 2D6 (Homo sapiens, UniProt P10635);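 note: CYP2D6 member of a cytochrome P450 panel assay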
Cytochrome P450 1A2 = biological target: T2, Cytochrome P450 1A2 (Homo sapiens, UniProt P05177);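 note: PubChem cytochrome P450 panel assay, CYP1A2 panel member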
T2 sequence (P05177 whole entry): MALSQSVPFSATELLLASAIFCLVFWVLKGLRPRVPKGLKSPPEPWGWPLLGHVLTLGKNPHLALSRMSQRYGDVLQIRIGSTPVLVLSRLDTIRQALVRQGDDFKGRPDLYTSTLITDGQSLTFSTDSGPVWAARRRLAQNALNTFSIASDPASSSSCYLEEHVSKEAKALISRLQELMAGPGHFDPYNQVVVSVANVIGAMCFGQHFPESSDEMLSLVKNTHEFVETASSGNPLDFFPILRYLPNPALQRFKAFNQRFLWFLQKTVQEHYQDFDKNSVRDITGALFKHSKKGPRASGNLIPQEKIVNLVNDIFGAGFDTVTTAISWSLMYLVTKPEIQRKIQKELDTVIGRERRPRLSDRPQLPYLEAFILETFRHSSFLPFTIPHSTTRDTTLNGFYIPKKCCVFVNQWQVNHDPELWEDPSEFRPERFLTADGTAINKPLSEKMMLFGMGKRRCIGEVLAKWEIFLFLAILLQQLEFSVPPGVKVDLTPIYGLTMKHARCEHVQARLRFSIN

Cytochrome P450 2C19 = Cytochrome P450 2C19 (Homo sapiens, UniProt P33261); assay: Cytochrome panel assay with activity outcomes. Panel member name: p450-cyp2c19 Compounds with AC50 equal or less than 10 uM are considered active; type: functional; conditions: read-out: AC50
BJ [8] = assay: BJ-TERT fibroblast viability loss – cell-based, RAS-independent, luminescence, dose response (AID 1933); type: functional; conditions: Homo sapiens
BJ [9] = assay: BJ-TERT-LT-ST fibroblast viability loss – cell-based, RAS-independent, luminescence, dose response (AID 1935); type: functional; conditions: Homo sapiens;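 note: BJ fibroblasts immortalized with TERT plus LT and ST oncogenes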
Paired box protein Pax-8 = Paired box protein Pax-8 (Homo sapiens, UniProt Q06710); assay: PAX8 transcriptional activity inhibition in RMG-I – RMG-I cells, luciferase, cherry-pick, dose response (AID 687027); type: functional, cell-based;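 note: luciferase reporter driven by Pax8 target thyroperoxidase promoter measured by SteadyGlo luminescence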
[10] = DRD fibroblast viability loss – cell-based, non-viral oncogenic, luminescence, dose response (AID 1934); type: functional; conditions: Homo sapiens
BJ [11] = assay: cells; type: functional, cell-based; conditions: Homo sapiens
[12] = microbe, parasite or virus in culture; type: functional; conditions: Mycobacterium tuberculosis
Cytochrome P450 3A4 = Cytochrome P450 3A4 (Homo sapiens, UniProt P08684);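 note: CYP3A4 tested as one member of a cytochrome P450 panel screen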
[13] = intracellular Trypanosoma cruzi inhibitors in host cells – cell-based, plate reader, cherry-pick samples, set 3, dose response (AID 651818); type: functional;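 note: compounds incubated with infected cells for about four days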

Chain of Luciferin 4-monooxygenase (P08659 whole entry): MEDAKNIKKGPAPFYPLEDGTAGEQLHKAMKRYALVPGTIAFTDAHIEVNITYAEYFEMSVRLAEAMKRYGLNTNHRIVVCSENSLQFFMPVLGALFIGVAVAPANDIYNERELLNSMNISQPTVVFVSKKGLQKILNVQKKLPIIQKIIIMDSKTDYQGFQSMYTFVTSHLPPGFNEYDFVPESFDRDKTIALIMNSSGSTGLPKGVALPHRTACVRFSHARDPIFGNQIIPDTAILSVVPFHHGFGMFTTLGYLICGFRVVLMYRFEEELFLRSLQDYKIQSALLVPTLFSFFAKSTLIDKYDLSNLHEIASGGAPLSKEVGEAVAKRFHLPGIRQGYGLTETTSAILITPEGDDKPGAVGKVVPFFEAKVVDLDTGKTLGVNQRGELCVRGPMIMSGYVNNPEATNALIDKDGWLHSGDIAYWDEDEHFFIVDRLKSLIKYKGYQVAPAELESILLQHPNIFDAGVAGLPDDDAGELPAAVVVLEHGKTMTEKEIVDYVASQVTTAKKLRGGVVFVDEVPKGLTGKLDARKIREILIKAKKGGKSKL
Chain of Cytochrome P450 2C9 (P11712 whole entry): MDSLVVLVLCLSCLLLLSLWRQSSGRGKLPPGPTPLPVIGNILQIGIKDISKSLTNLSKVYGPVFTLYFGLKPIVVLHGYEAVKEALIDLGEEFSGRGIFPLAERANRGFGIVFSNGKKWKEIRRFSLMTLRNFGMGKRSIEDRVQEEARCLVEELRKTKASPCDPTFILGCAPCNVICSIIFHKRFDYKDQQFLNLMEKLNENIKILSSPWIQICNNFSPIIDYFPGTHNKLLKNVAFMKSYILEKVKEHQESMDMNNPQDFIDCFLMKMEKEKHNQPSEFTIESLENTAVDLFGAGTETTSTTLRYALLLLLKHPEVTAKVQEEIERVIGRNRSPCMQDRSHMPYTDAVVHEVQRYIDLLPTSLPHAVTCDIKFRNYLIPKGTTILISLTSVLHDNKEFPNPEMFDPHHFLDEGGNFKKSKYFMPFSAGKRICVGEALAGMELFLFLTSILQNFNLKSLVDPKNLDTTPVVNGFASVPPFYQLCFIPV
Chain of Paired box protein Pax-8 (Q06710 whole entry): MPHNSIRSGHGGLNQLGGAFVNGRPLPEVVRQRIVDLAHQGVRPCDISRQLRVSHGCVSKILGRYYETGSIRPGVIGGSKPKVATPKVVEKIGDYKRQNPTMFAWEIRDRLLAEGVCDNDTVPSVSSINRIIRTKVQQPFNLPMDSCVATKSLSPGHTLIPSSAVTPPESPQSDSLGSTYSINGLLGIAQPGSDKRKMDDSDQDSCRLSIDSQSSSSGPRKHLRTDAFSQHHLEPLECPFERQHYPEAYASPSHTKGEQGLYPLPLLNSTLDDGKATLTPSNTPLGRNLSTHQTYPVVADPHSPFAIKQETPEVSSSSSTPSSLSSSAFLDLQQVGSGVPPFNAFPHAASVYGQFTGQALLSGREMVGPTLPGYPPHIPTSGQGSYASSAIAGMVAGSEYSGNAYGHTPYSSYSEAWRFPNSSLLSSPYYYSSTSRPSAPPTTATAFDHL
Chain of Cytochrome P450 2D6 (P10635 whole entry): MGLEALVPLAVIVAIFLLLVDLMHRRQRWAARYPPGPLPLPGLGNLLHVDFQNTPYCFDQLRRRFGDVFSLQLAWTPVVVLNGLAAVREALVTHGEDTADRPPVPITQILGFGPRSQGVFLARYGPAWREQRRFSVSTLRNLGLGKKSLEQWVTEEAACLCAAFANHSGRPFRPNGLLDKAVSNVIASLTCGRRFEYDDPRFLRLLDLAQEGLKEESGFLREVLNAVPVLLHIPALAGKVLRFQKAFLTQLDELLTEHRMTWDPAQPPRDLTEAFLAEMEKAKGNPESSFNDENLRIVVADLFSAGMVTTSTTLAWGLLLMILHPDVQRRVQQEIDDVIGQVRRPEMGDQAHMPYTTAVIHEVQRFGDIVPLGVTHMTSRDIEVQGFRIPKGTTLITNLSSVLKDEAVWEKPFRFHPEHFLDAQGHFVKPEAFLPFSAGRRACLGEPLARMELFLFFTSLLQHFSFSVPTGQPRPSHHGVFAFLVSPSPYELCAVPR
Chain of Cytochrome P450 2C19 (P33261 whole entry): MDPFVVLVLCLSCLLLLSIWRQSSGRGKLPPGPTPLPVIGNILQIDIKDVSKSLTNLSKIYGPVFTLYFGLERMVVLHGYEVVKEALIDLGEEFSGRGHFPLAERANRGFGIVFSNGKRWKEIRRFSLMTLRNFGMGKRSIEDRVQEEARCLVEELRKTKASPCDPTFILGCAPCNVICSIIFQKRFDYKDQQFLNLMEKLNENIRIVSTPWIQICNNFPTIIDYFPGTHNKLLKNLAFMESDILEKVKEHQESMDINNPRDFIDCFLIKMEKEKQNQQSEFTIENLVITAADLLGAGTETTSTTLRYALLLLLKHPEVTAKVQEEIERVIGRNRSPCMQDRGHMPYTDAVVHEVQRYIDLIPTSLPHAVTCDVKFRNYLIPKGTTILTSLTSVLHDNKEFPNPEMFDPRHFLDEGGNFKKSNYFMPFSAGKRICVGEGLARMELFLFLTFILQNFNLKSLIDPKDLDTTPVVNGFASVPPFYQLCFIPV
Chain of Cytochrome P450 3A4 (P08684 whole entry): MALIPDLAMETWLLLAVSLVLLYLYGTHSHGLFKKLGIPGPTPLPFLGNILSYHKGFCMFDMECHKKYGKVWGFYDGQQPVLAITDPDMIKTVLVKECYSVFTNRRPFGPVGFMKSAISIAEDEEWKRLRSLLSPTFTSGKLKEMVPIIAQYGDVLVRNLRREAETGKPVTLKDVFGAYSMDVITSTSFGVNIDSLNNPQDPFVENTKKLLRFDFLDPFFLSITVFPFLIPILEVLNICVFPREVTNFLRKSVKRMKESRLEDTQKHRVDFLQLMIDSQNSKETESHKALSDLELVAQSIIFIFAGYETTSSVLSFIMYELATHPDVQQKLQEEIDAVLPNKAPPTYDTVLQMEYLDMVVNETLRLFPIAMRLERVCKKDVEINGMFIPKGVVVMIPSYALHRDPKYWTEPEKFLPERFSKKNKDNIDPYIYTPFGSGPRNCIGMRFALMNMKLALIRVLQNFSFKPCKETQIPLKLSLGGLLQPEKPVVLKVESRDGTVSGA

SMILES: O=C(c1ccc(Cl)cc1)C1CCCN(Cc2ccc(Oc3ncccn3)cc2)C1 (configuration not stated)
- EC50 [1]: > 112 µM (not active)
- EC50 [2]: > 112 µM (not active)

SMILES: Cc1ccc(NC(=O)CN2C(=O)N/C(=C/c3ccco3)C2=O)cc1
- IC50 (Leucine aminopeptidase): 37.8 µM (active)

SMILES: CC(C)c1nnc(NC(=O)c2cnccn2)s1
- IC50 (Prothrombin): > 50 µM (not active)

SMILES: CCn1cc(C(=O)NCC(OC)OC)c(=O)c2cc(S(=O)(=O)N3CCC(C)CC3)ccc21
- CC50 [3]: 11.1 µM (active)
- EC50 (cells [4]): > 350 µM (not active)
- EC50 (cells [5]): > 350 µM (not active)

SMILES: Cc1cccc(NC(=O)CN2NS(=O)(=O)c3ccccc3C2=O)c1
- IC50 (Leucine aminopeptidase): 7.74 µM (active)

SMILES: Cc1ccnc(NS(=O)(=O)c2cc([N+](=O)[O-])ccc2C)c1
- EC50 (cells [4]): > 350 µM (not active)
- EC50 (cells [5]): > 350 µM (not active)

SMILES: CCn1c(O)nnc1Sc1nc(C)nc2scc(-c3cccs3)c12
- EC50 [6]: > 160 µM (inactive)
- EC50 [7]: 0.163 µM (active)

SMILES: O=C(NNC(=S)NC(=O)c1ccccc1[N+](=O)[O-])c1ccc(Cl)cc1Cl
- EC50 [6]: > 150 µM (inconclusive)
- EC50 [7]: 4.09 µM (active)

SMILES: O=C(O)C1CCCCC1C(=O)Nc1ccc(Cl)cc1Cl (configuration not stated)
- IC50 (Leucine aminopeptidase): 14.3 µM (active)

SMILES: O=C(CN1C(=O)c2ccccc2S1(=O)=O)Nc1ccccc1
- IC50 (Leucine aminopeptidase): 24.6 µM (active)
- AC50 (Cytochrome P450 2C9): 12.6 µM (inconclusive)
- AC50 (Cytochrome P450 2D6): 17.8 µM (inconclusive)

SMILES: C[C@@H](CO)NC(=O)c1ccc2c3n(nc2c1)-c1ccccc1CO3
- EC50 [1]: 6.93 µM (active)
- EC50 [2]: 16.4 µM (active)

SMILES: Nc1n[nH]c(N)c1N=Nc1cccc(F)c1
- IC50 (Leucine aminopeptidase): 5.51 µM (active)

SMILES: COc1ccc(NC(=O)CSc2[nH]c(=O)cc(C)c2C#N)cc1OC
- IC50 (Leucine aminopeptidase): 16.2 µM (active)

SMILES: Cc1ccc(C(=O)n2ncn(C)c2=S)cc1
- IC50 (Prothrombin): 1.02 µM (active)

SMILES: CSc1nc(-c2ccccc2)nn1C(=O)c1ccccc1
- IC50 (Prothrombin): 0.896 µM (active)
- AC50 (Cytochrome P450 2C9): 10 µM (inconclusive)
- AC50 (Cytochrome P450 1A2): 2.51 µM (inconclusive)
- AC50 (Cytochrome P450 2C19): 0.1 µM (inconclusive)

SMILES: Cc1ccc(C(=O)CSc2ccc(-c3ccncc3)nn2)cc1
- EC50 (cells [4]): > 350 µM (not active)
- EC50 (cells [5]): > 350 µM (not active)

SMILES: COc1ccc(CC(=O)n2nc(-c3ccccc3)nc2NCc2ccco2)cc1
- IC50 (Prothrombin): 8.75 µM (active)

SMILES: O=C(CCCN1C(=O)/C(=C/c2cccc(Br)c2)SC1=S)Nc1cccnc1
- EC50 (BJ [8]): 3.12 µM (active)
- EC50 (BJ [9]): 17.2 µM (active)
- AC50 (Paired box protein Pax-8): 8.92 µM (active)
- EC50 [10]: 9.68 µM (active)
- EC50 (BJ [11]): 25.3 µM (active)

SMILES: Cc1ccc(C)c(OCC(=O)O/N=C(\N)c2cccc([N+](=O)[O-])c2)c1
- EC50 (cells [4]): > 350 µM (not active)
- EC50 (cells [5]): > 350 µM (not active)

SMILES: CCCOc1ccc(CNC(=O)c2ccc3c(c2)N(CC)CCS3)cc1
- EC50 [1]: > 112 µM (not active)
- EC50 [2]: > 112 µM (not active)

SMILES: C#CCNc1cc(C)nc2ncnn12
- IC50 (Prothrombin): > 50 µM (not active)

SMILES: CCN(CC)S(=O)(=O)c1cccc(NC(=O)/C=C/c2cccc([N+](=O)[O-])c2)c1
- IC50 (Prothrombin): > 50 µM (not active)

SMILES: CC1COC(=O)C(NNc2ccc(Cl)c(Cl)c2)=N1 (configuration not stated)
- EC50 [6]: > 160 µM (inactive)
- EC50 [7]: 2.17 µM (active)

SMILES: COc1ccc(CNc2nc(-c3cccnc3)nn2C(=O)C(C)C)cc1
- IC50 (Prothrombin): 0.167 µM (active)

SMILES: Cc1cc(NC(=O)CCl)no1
- EC50 (BJ [8]): 18 µM (active)
- CC50 [12]: 19.6 µM (active)
- EC50 (BJ [9]): > 75 µM (not active)
- EC50 [10]: 21.1 µM (active)
- EC50 (BJ [11]): > 150 µM (not active)

SMILES: CC(C)=CCSc1nnc([C@@H](N)Cc2c[nH]c3ccccc23)o1
- EC50 (cells [4]): > 350 µM (not active)
- EC50 (cells [5]): > 350 µM (not active)

SMILES: Cc1cc(S(=O)(=O)N2CCCCC2)ccc1OCC(=O)Nc1ccccc1
- EC50 [1]: 19.7 µM (active)
- EC50 [2]: > 112 µM (not active)

SMILES: Cc1ccc(S(=O)(=O)N2CC(C)N(C(=O)N3CCOCC3)C2C)cc1 (configuration not stated)
- EC50 (cells [4]): > 350 µM (not active)
- EC50 (cells [5]): > 350 µM (not active)

SMILES: COc1ccc(S(=O)(=O)N(C)CC(=O)Nc2ccc3c(c2)OCO3)cc1OC
- EC50 [1]: > 112 µM (not active)
- EC50 [2]: > 112 µM (not active)

SMILES: CCOC(=O)CSc1n[nH]c(NC(=O)c2cccc(C)c2)n1
- IC50 (Prothrombin): 0.586 µM (active)
- AC50 (Cytochrome P450 2C9): 25.1 µM (inconclusive)
- AC50 (Cytochrome P450 3A4): 5.62 µM (inconclusive)

SMILES: O=C(CCN1C(=O)/C(=C/c2cccc(Br)c2)SC1=S)Nc1cccnc1
- EC50 (BJ [8]): 7.86 µM (inconclusive)
- EC50 (BJ [9]): > 150 µM (not active)
- EC50 [10]: 18.7 µM (active)
- EC50 (BJ [11]): > 150 µM (not active)

SMILES: C[C@@H]1CN([C@H](C)CO)C(=O)Cc2cc(NC(=O)Nc3ccc(F)cc3)ccc2O[C@H]1CN(C)Cc1ccc(Cl)c(Cl)c1
- AC50 [13]: 4.44 µM (active)
- AC50 (Paired box protein Pax-8): 16.2 µM (active)

SMILES: C[C@H]1CN([C@@H](C)CO)C(=O)c2cccc(NC(=O)C3CCCCC3)c2O[C@@H]1CN(C)Cc1ccc(Oc2ccccc2)cc1
- AC50 [13]: 4.77 µM (active)

SMILES: C[C@H]1CN([C@@H](C)CO)C(=O)c2cccc(NC(=O)c3cnccn3)c2O[C@@H]1CN(C)Cc1ccc(C(=O)Nc2ccccc2N)cc1
- AC50 [13]: 2.99 µM (active)

SMILES: CC(C)c1ccc(N(CC(=O)N/N=C/c2ccc(OC3CSC3)cc2)S(=O)(=O)c2ccccc2)cc1
- IC50 (Prothrombin): > 50 µM (not active)

SMILES: Cc1nn(-c2ccccc2)c(Cl)c1/C=N/NC(=O)c1[nH]ncc1Br
- EC50 [1]: 3.52 µM (active)
- EC50 [2]: 0.374 µM (active)

SMILES: Nc1nnnn1/N=C/c1cccc(Oc2ccccc2)c1
- EC50 [6]: > 150 µM (inactive)
- EC50 [7]: > 38 µM (not active)

SMILES: CCOC(=O)C1CCN(/C=N/c2cc(C)on2)CC1
- EC50 [1]: > 112 µM (not active)
- EC50 [2]: > 112 µM (not active)

SMILES: CC[C@@H]1C=CC=CC[C@H](C)[C@@H](O)[C@@H](C)C(=O)[C@H](C)[C@@H](O)[C@H](C)C(=O)[C@H](C)[C@@H](O)[C@H](C)C=CC(=O)O[C@H]2[C@@H](C)[C@@H](CC1)O[C@@]1(CC[C@@H](C)[C@@H](C[C@H](C)O)O1)[C@@H]2C [OLIGOMYCIN C]
- EC50 [6]: 15.6 µM (active)
- EC50 [7]: 0.427 µM (active)
